# Laboratory results as given in article PMC9482650, “Quantitative fragmentomics allow affinity mapping of interactomes” (Nature Communications, 2022).
# Primed or numbered codes have the meaning given here. Ends that are not written are not given here. * marks the point of attachment. Biotin = O=C1N[C@H]2[C@H](CS[C@H]2CCCCC(=O)*)N1; ttds″ = trioxatridecan-succinamic acid linker
# Key:
# [1] = test system: Jurkat cell extract preys; assay: PDZ-AP-MS, biotinylated MBP-PDZ baits; type: binding, human
# Description: (§1) For PDZ-AP-MS experiments, PDZ domains were cloned as His6-AviTag-MBP-PDZ constructs. For co-expression with BirA, E. coli BL21(DE3) cells were co-transformed with His6-AviTag-MBP, or His6-AviTag-MBP-PDZ-coding and PET21a-BirA (Addgene #20857) plasmids. Simultaneously to IPTG induction, 50 µM biotin was added to the media. After cell harvesting, the lysis buffer was also supplemented with 50 µM biotin. Otherwise, expression and double affinity purification was identical as previously described in details.
# (§2) For PBM-AP-MS experiments, 30 μl streptavidin resin was mixed with biotin or peptide at 50–60 μM concentration in 6–6.5 resin volume for 60 min to achieve resin saturation. For PDZ-AP-MS experiments, 30 μl streptavidin resin was mixed with biotinylated MBP or MBP-PDZ at 40-50 μM concentration in >1000× resin volume for 60 min to achieve resin saturation. After saturation, resins were washed a single time (ten resin volume, holdup buffer), and were depleted with biotin (1 mM biotin, 5–10 resin volume, 10 min). Finally, resins were washed two times. 0.5 ml 2 mg/ml cell lysate was added to the dry resin (1 mg total input) and were incubated at 4 °C for 2 h. Then, the beads were washed three times with 10 resin volume buffer containing: 50 mM TRIS pH 8.5, 150 mM NaCl, 1% TritonX-100, 10× complete EDTA-free protease inhibitor cocktail, 2 mM EDTA, 1 mM TCEP. Then, the beads were washed two times with ten resin volume buffer containing: 50 mM TRIS pH 8.5, 150 mM NaCl, 1 mM TCEP. Finally, captured protein was eluted from the resin in two steps and the eluted fractions were pooled. For each elution the beads were incubated for 30 min with three resin volume buffer containing: 20 mM TRIS pH8.5, 100 mM NaCl, 500 μM TCEP, 8 M Urea. Between each step, the beads were separated by mild centrifugation and the supernatant was removed by gentle pipetting.
# (§3) The samples were precipitated with TCA 20% overnight at 4 °C and centrifuged at 14,000 rpm for 10 min at 4 °C. The protein pellets were washed twice with 1 mL cold acetone and air dried. The protein extracts were solubilized in urea 8 M, reduced with 5 mM TCEP for 30 min, and alkylated with 10 mM iodoacetamide for 30 min in the dark. Double digestion was performed at 37 °C with 500 ng endoproteinase Lys-C for 4 h, followed by fourfold dilution and an overnight digestion with 500 ng trypsin. Peptide mixtures were then desalted on C18 spin-column and dried on Speed-Vacuum.
# (§4) Samples were analyzed using an Ultimate 3000 nano-RSLC (Thermo Scientific, San Jose California) coupled in line with a LTQ-Orbitrap ELITE mass spectrometer via a nano-electrospray ionization source (Thermo Scientific, San Jose California). […]
# HaCat cell extract preys = assay: PDZ-AP-MS, biotinylated MBP-PDZ baits; type: binding, human
# Description: as §1, §2, §3, §4
# SLC9A3R2 = assay: PBM-AP-MS from HaCat extract; type: binding, Homo sapiens; conditions: prey SLC9A3R2 (Q15599), PBM bait vs biotin control (Biot03)
# SYNJ2BP = assay: PBM-AP-MS from HaCat extract; type: binding, Homo sapiens; conditions: prey SYNJ2BP (P57105), PBM bait vs biotin control (Biot03)
# MPP7 = assay: PBM-AP-MS from HaCat extract; type: binding, Homo sapiens; conditions: prey MPP7 (Q5T2T1), PBM bait vs biotin control (Biot03)
# LIN7C [2] = assay: PBM-AP-MS from HaCat extract; type: binding, Homo sapiens; conditions: prey LIN7C (Q9NUP9), PBM bait vs biotin control (Biot03)
# CASK [3] = assay: PBM-AP-MS from HaCat extract; type: binding, Homo sapiens; conditions: prey CASK (O14936), PBM bait vs biotin control (Biot03)
# SCRIB [4] = assay: PBM-AP-MS from HeLa extract; type: binding, Homo sapiens; conditions: prey SCRIB (Q14160), PBM bait vs biotin control
# SNTB2 = assay: PBM-AP-MS from HeLa extract; type: binding, Homo sapiens; conditions: prey SNTB2 (Q13425), PBM bait vs biotin control
# SCRIB [5] = assay: PBM-AP-MS from Jurkat extract; type: binding, Homo sapiens
# LIN7C [6] = assay: PBM-AP-MS from Jurkat extract; type: binding, Homo sapiens
# MAGI1 = assay: PBM-AP-MS from Jurkat extract; type: binding, Homo sapiens
# DLG1 = assay: PBM-AP-MS from Jurkat extract; type: binding, Homo sapiens
# CASK [7] = assay: PBM-AP-MS from Jurkat extract; type: binding, Homo sapiens; conditions: Jurkat lysate
# LIN7C [8] = assay: PBM-AP-MS from HeLa extract; type: binding, Homo sapiens; conditions: prey LIN7C (Q9NUP9), PBM bait vs biotin control
# PDZK1 = assay: PBM-AP-MS from HeLa extract; type: binding, Homo sapiens; conditions: prey PDZK1 (Q5T2W1), PBM bait vs biotin control
# CPVL = assay: PBM-AP-MS from HeLa extract; type: binding, Homo sapiens; conditions: prey CPVL (Q9H3G5), PBM bait vs biotin control
# MAGI1_2 PDZ = MAGI1_2 PDZ (Homo sapiens, UniProt Q96QZ7); assay: Competitive fluorescence polarization (FP) assay; type: binding; conditions: read-out: pKd FP (converted)
# Sequence of MAGI1_2 PDZ (Q96QZ7 472-554 limits assumed): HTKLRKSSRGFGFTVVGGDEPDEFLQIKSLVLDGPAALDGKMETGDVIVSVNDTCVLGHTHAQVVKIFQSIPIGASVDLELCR
# Description: In direct fluorescence polarization assay, the fluorophore label can interfere with affinity determination and can cause large experimental bias. For this reason, affinities were determined with competitive FP measurements where the bound fluorescent peptide is chased out by increasing concentration of unlabeled competitor. In the fitting procedure, affinities of both peptides are considered. Each PDZ-domain was first tested with labeled peptides in direct experiments and then optimal labeled peptides were used in competitive experiments.
# Double affinity-purified His6-MBP-PDZ were used for affinity measurements by FP. Fluorescence polarization was measured with a PHERAstar microplate reader by using 485 ± 20 nm and 528 ± 20 nm band-pass filters for excitation and emission, respectively. […] In total, the polarization of the probe was measured at eight different protein concentrations (whereas one contained no protein and corresponded to the free peptide). […] The dissociation constants of the direct and competitive FP experiments were obtained by fitting the measured direct data with a quadratic binding equation first and by fitting the measured competitive data with a competitive equation, using several obtained parameters from the first fit[71]. In part, competitive fluorescence polarization data were taken from refs. [22],[21]. […]
# MPP5 [9] = assay: PBM-AP-MS from Jurkat extract; type: binding, Homo sapiens; conditions: prey MPP5 (Q8N3R9), PBM bait vs biotin control
# From the text: Supplement 41467_2022_33018_MOESM5_ESM.xlsx, sheet "Jurkat HPV59-E6" | column: -LOG(P-Value); Difference log2; Ratio HPV59/biot
# MAGI3 = assay: PBM-AP-MS from HaCat extract; type: binding, Homo sapiens; conditions: prey MAGI3 (Q5TCQ9), PBM bait vs biotin control (Biot03)
# From the text: (§5) Supplement 41467_2022_33018_MOESM5_ESM.xlsx, sheet "HaCat HPV59-E6" | column: -LOG(P-value); Difference log2; Ratio HPV59E6/Biot03
# MPP5 [10] = assay: PBM-AP-MS from HaCat extract; type: binding, Homo sapiens; conditions: prey MPP5 (Q8N3R9), PBM bait vs biotin control (Biot03)
# From the text: as §5
# [11] = fold enrichment of prey vs biotin control resin, Jurkat lysate
# [12] = prey enrichment on PBM bait resin vs biotin control resin, Jurkat lysate, technical triplicates
# [13] = Jurkat extract, prey SCRIB (Q14160), PBM bait vs biotin control
# [14] = Jurkat extract, prey LIN7C (Q9NUP9), PBM bait vs biotin control
# [15] = Jurkat extract, prey MAGI1 (Q96QZ7), PBM bait vs biotin control
# [16] = Jurkat extract, prey DLG1 (Q12959), PBM bait vs biotin control
compound,measurement,setting,value
ANXA2,Difference log2,"[1]; bait SCRIB_2 PDZ vs MBP, enrichment of prey",5.895
same,Ratio SCRIB_2/MBP,"[1]; bait SCRIB_2 PDZ, fold change of prey",59.5253
EXOC1,Difference log2,"HaCat cell extract preys; bait DLG1_2 PDZ vs MBP, enrichment of prey",4.458
same,Ratio DLG1_2/MBP,"HaCat cell extract preys; bait DLG1_2 PDZ, fold change of prey",21.9853
SSRTRRETQL [HPV16-E6],Difference log2,SLC9A3R2,3.853
same,Ratio bait/Biot03,SLC9A3R2,14.4499
same,Difference log2,SYNJ2BP,4.095
same,Ratio bait/Biot03,SYNJ2BP,17.0893
same,Difference log2,MPP7,5.9997
same,Ratio bait/Biot03,MPP7,63.9865
same,Difference log2,LIN7C [2],8.385
same,Ratio bait/Biot03,LIN7C [2],334.203
same,Difference log2,CASK [3],6.666
same,Ratio bait/Biot03,CASK [3],101.558
same,Difference log2,SCRIB [4],7.71
same,Ratio bait/biot,SCRIB [4],209.394
same,Difference log2,SNTB2,5.25
same,Ratio bait/biot,SNTB2,38.0503
same,Ratio bait/biot,SCRIB [5]; [11],256.729
same,Difference log2,SCRIB [5]; [12],8.0041
same,Ratio bait/biot,LIN7C [6]; [11],32.0459
same,Difference log2,LIN7C [6]; [12],5.002
same,Ratio bait/biot,MAGI1; [11],36.8169
same,Difference log2,MAGI1; [12],5.2023
same,Ratio bait/biot,DLG1; [11],502.402
same,Difference log2,DLG1; [12],8.9727
same,Ratio bait/biot,CASK [7]; fold enrichment of prey vs biotin control resin,11.3007
same,Difference log2,"CASK [7]; prey enrichment on PBM bait resin vs biotin control resin, technical triplicates",3.498
same,Difference log2,LIN7C [8],7.182
same,Ratio bait/biot,LIN7C [8],145.232
same,Difference log2,PDZK1,4.4
same,Ratio bait/biot,PDZK1,21.1168
same,Difference log2,CPVL,4.342
same,Ratio bait/biot,CPVL,20.282
CC(C)C[C@H](NC(=O)[C@H](CCC(N)=O)NC(=O)[C@@H](NC(=O)[C@H](CCC(=O)O)NC(=O)[C@H](CCCNC(=N)N)NC(=O)[C@H](CCCNC(=N)N)NC(=O)[C@@H](NC(=O)[C@H](CCCNC(=N)N)NC(=O)[C@H](CO)NC(=O)[C@H](CO)NC(=O)CCC(=O)NCCCOCCOCCOCCCNC(=O)CCCC[C@@H]1SC[C@@H]2NC(=O)N[C@@H]21)[C@@H](C)O)[C@@H](C)OP(=O)(O)O)C(=O)O [HPV16-E6_-2P],Kd,MAGI1_2 PDZ,2520 µM
HPV59-E6 ({Biotin-ttds″}-QRQARSETLV),Difference log2,MPP5 [9],4.755
same,Ratio bait/biot,MPP5 [9],26.9941
same,Difference log2,MPP7,5.592
same,Ratio bait/Biot03,MPP7,48.2208
same,Difference log2,LIN7C [2],8.47
same,Ratio bait/Biot03,LIN7C [2],354.524
same,Difference log2,CASK [3],7.278
same,Ratio bait/Biot03,CASK [3],155.163
same,Difference log2,SCRIB [5]; [13],4.363
same,Ratio bait/biot,SCRIB [5]; [13],20.5739
same,Difference log2,LIN7C [6]; [14],5.541
same,Ratio bait/biot,LIN7C [6]; [14],46.5688
same,Difference log2,MAGI1; [15],6.509
same,Ratio bait/biot,MAGI1; [15],91.0533
same,Difference log2,DLG1; [16],9.078
same,Ratio bait/biot,DLG1; [16],540.448
same,Difference log2,MAGI3,2.908
same,Ratio bait/Biot03,MAGI3,7.505
same,Difference log2,MPP5 [10],3.6952
same,Ratio bait/Biot03,MPP5 [10],12.9528
